The values that follow come from US20200093751A1, “CHEMOPROTECTIVE/CHEMOACTIVE NANODROPLETS AND METHODS OF USE THEREOF” (priority 2016, published 2020).

The nature of series [1]: Toxicity / chemoprotective effect (body weight) in NCI-H460 tumor-bearing nude mice. The series is classed as in vivo. As to the method:
When tumor volume reached approximately 50 mm^3, groups of tumor-bearing mice (n=5) were injected through the tail vein twice per week for a total of three weeks with a dose of 30 mg/kg per animal.
When tumor volume reached approximately 50 mm^3, groups of tumor-bearing mice (n=5) were injected through the tail vein twice per week for a total of three weeks with a dose of 30 mg/kg per animal of Tonp or once per week with a dose of 15 mg/kg per animal of TAXOTERE®.
The Tonp was injected one day before TAXOTERE® starting just before the second injection of TAXOTERE®.
Toxicity of the nanodroplet formulations was further assessed with respect to groups of mice with tumors. NCI-H460 human lung cancer cells were injected subcutaneously on the backs of nude mice to establish a tumor model. When tumor volume reached approximately 50 mm^3, mice were divided into treatment groups, which typically consisted of five mice. Mice were injected through the tail vein twice per week for three weeks with 30 mg/kg of Tonp or once per week with a dose of 15 mg/kg of TAXOTERE®.
One group of tumor-bearing mice was injected with TAXOTERE® through the tail vein once per week at a dose of 15 mg/kg per animal. […] Tonp, when used, was injected one day before TAXOTERE® starting just before the second injection of TAXOTERE®.

For series [2], the system named is NCI-H460 human lung cancer model. Put plainly: Tumor growth inhibition in NCI-H460 human lung cancer model in nude mice. The note with it: TAXOTERE 15 mg/kg tail vein once per week, two injections; treatment ended on 13th day. It is filed as in vivo. As to the method: NCI-H460 cell suspensions were injected subcutaneously on the backs of mice to establish a tumor model. When tumor volume reached approximately 50 mm^3, groups of tumor-bearing mice (n=5) were injected through the tail vein once per week for a total of two weeks with a dose of 15 mg/kg per animal for TAXOTERE® or 30 mg/kg per animal twice per week for three weeks for Tonp nanodroplets. On the 20th day, the tumor growth inhibition of d-T3 (Tonp) treatment was 70%.
NCI-H460 cell suspensions were injected subcutaneously on the backs of mice to establish the tumor model. […] The Tonp was injected one day before TAXOTERE® starting just before the second injection of TAXOTERE®.
NCI-H460 human lung cancer cells were injected subcutaneously on the backs of nude mice to establish a tumor model. When tumor volume reached approximately 50 mm^3, mice were divided into treatment groups, which typically consisted of five mice.
In one experiment, tumor-bearing mice were either left untreated, were treated with TAXOTERE®, or were treated with Tonp nanodroplets. Mice were injected through the trail vein once per week with 15 mg/kg of TAXOTERE® or twice per week for three weeks with a dose of 30 mg/kg of Tonp.
One group of tumor-bearing mice was injected with TAXOTERE® through the tail vein once per week at a dose of 15 mg/kg per animal. […]

`CC(=O)O[C@@]12CO[C@@H]1C[C@H](O)[C@@]1(C)C(=O)[C@H](O)C3=C(C)[C@@H](OC(=O)[C@H](O)[C@@H](NC(=O)OC(C)(C)C)c4ccccc4)C[C@@](O)([C@@H](OC(=O)c4ccccc4)[C@H]21)C3(C)C` [TAXOTERE®, docetaxel]: the “body weight after about two weeks of treatment” value in series [1] (TAXOTERE 15 mg/kg once per week) is listed as “significantly decreased in body weight”. Besides, the “body weight after two injections of TAXOTERE” value in series [1] (TAXOTERE 15 mg/kg once per week without Tonp, treatment ended on 13th day) is recorded as “severe body weight drop”. In addition, the tumor growth inhibition in series [2] is 71%.
